# In patent US5047406A, “Substituted cyclohexanols as central nervous system agents” (Warner-Lambert Co., priority 1990, dated 1991):
# Read-outs that look alike come from different tables or passages of the source.
# Experiments:
# [1] = target: T1, [^3 H]-Spiroperidol Binding (Homo sapiens, UniProt P14416); assay: Inhibition of [^3 H]-spiroperidol binding in a receptor assay
# T1 construct: receptor assay described by D. Grigoriadis and P. Seeman, Journal of Neurochemistry, Volume 44, pages 1925-1935 (1985); from tissue
# T1 sequence (P14416 whole entry): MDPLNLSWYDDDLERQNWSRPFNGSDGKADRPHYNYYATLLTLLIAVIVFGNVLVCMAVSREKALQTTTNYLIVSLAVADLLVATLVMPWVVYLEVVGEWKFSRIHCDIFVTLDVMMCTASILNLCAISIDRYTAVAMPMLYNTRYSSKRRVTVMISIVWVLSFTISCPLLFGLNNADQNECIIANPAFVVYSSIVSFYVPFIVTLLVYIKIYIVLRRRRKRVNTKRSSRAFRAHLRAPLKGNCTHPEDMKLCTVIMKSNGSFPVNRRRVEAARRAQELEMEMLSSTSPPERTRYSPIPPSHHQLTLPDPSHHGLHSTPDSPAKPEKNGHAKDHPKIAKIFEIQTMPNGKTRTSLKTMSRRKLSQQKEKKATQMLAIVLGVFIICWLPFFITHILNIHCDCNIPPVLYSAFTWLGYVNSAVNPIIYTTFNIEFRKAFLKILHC
# Description: (§1) The above test methods are incorporated herein by reference.
# [2] = system: Locomotor Activity in Mice; assay: Inhibition of locomotor activity in mice; format: in vivo; conditions: for ED50: Mus musculus, ip; for Inhibition of Locomotor Activity in Mice ED50: IP
# Description: as §1
# [3] = system: Brain Striatal Dopamine Synthesis; assay: Effects on brain striatal dopamine synthesis in rats; format: in vivo; conditions: for inhibition in vivo at 10 mg/kg: Rattus norvegicus; for Effects on Brain Striatal Dopamine Synthesis in Rats, % inhibition: 10 mg/kg
# Description: as §1
# [4] = target: sigma opiate binding site; assay: Inhibition of [^3 H] DTG (ditoluoyl guanidine; a sigma ligand) binding
# Experimental: The compounds of Formula I are valuable dopaminergic agents. […] Thus, the compounds of Formula I were tested for their ability to inhibit locomotor activity in mice according to the assay described by J. R. McLean, et al, Pharmacology, Biochemistry and Behavior, Volume 8, pages 97-99 (1978); for their ability to inhibit [[…] ]-spiroperidol binding in a receptor assay described by D. Grigoriadis and P. Seeman, Journal of Neurochemistry, Volume 44, pages 1925-1935 (1985); and for their ability to inhibit dopamine synthesis in rats according to the protocol described by J. R. Walters and R. H. Roth, Naunyn-Schmiedeberg's Archives of Pharmacology, Volume 296, pages 5-14 (1976). The above test methods are incorporated herein by reference. The data in the table show the dopaminergic activity of representative compounds of Formula I. Additionally, the compounds of Formula I are ligands for the sigma opiate binding site. The data in the table show the inhibition of [^3 H] DTG (ditoluoyl guanidine; a sigma ligand) binding by representative compounds of Formula I, according to the method of E. Weber, et al, Proceedings of the National Academy of Sciences, USA, Volume 83, pages 8784-8788 (1986).
# [5] = read-out: Inhibition of [^3 H]-Spiroperidol Binding IC50
SMILES,inhibition at 10 µM ([1]; at 10^-5 M),IC50 [4],"IC50 [1, 5]",ED50 [2],inhibition in vivo at 10 mg/kg ([3]; ip),IC50 ([1]; Inhibition of [^3 H]-Spiroperidol Binding IC50),inhibition in vivo at 10 mg/kg ([3]; IP),Inhibition of Locomotor Activity in Mice ED50 [2],"Effects on Brain Striatal Dopamine Synthesis in Rats, % inhibition ([3]; IP)"
"O=C(N[C@H]1CC[C@H](CCN2CC=C(c3ccccc3)CC2)CC1)c1ccccc1 [Example 72, trans N-[4-[2-(3,6-Dihydro-4-phenyl-1(2H)-pyridinyl)ethyl]cyclohexyl]benzamide]",–,–,–,0.27 mg/kg,–,100 nM,74%,–,–
"CN(C(=O)c1ccccc1)[C@H]1CC[C@H](N2CCN(c3ccccn3)CC2)CC1 [Example 42, trans N-Methyl-N-[4-[4-(2-pyridinyl)-1-piperazinyl]cyclohexyl]benzamide]",–,–,4840 nM,2.4 mg/kg,15%,–,–,–,–
"Cc1ccc(C(=O)N[C@H]2CC[C@H](CCN3CCN(c4ccccn4)CC3)CC2)cc1 [Example 54, trans 4-Methyl-N-[4-[2-[4-(2-pyridinyl)-1-piperazinyl]ethyl]cyclohexyl]benzamide]",–,–,290 nM,0.11 mg/kg,0%,–,–,–,–
"O=C(N[C@H]1CC[C@H](N2CC=C(c3ccccc3)CC2)CC1)c1ccccc1 [Example 46, trans N-[4-(3,6-Dihydro-4-phenyl-1(2H)-pyridinyl)cyclohexyl]benzamide]",–,–,360 nM,0.16 mg/kg,–,–,95%,–,–
"O=C(N[C@H]1CC[C@@H](CCN2CCN(c3ccccn3)CC2)CC1)c1ccccc1 [Example 53, cis N-[4-[2-[4-(2-Pyridinyl)-1-piperazinyl]ethyl]cyclohexyl]benzamide]",–,–,3280 nM,4.5 mg/kg,36%,–,–,–,–
"O=C(N[C@H]1CC[C@H](CCN2CCN(c3ccccn3)CC2)CC1)c1ccccc1 [Example 52, trans N-[4-[2-[4-(2-Pyridinyl)-1-piperazinyl]ethyl]cyclohexyl]benzamide]",–,–,440 nM,0.16 mg/kg,87%,–,–,–,–
"O=C(N[C@H]1CC[C@H](CCN2CC=C(c3ccccc3)CC2)CC1)c1cccs1 [Example 71, trans N-[4-[2-(3,6-Dihydro-4-phenyl-1(2H)-pyridinyl)ethyl]cyclohexyl]-2-thiophenecarboxamide]",–,–,210 nM,0.21 mg/kg,–,–,79%,–,–
"OC1(c2ccccn2)CCC(CCN2CC=C(c3ccccc3)CC2)CC1 (stereo not drawn) [Example 11, cis-1-(2-Pyridinyl)-4-[2-[3,6-dihydro-4-phenyl-1(2H)-pyridinyl]ethyl]cyclohexanol]",–,3.5 nM,156 nM,0.64 mg/kg,–,–,–,–,–
"OC1(c2cccnc2)CCC(CCN2CC=C(c3ccccc3)CC2)CC1 (stereo not drawn) [Example 12, cis-1-(3-Pyridinyl)-4-[2-[3,6-dihydro-4-phenyl-1(2H)-pyridinyl]ethyl]cyclohexanol]",–,–,116 nM,0.25 mg/kg,–,–,79%,–,–

# The next lines start with results.
inhibition at 10 µM ([1]; at 10^-5 M),IC50 [4],"IC50 [1, 5]",SMILES,ED50 [2],inhibition in vivo at 10 mg/kg ([3]; ip),IC50 ([1]; Inhibition of [^3 H]-Spiroperidol Binding IC50),inhibition in vivo at 10 mg/kg ([3]; IP),Inhibition of Locomotor Activity in Mice ED50 [2],"Effects on Brain Striatal Dopamine Synthesis in Rats, % inhibition ([3]; IP)"
94%,16.5 nM,–,"OC1(c2ccc(F)cc2)CCC(CCN2CCN(c3ccccn3)CC2)CC1 (stereo not shown) [Example 7, 1-(4-Fluorophenyl)-4-[2-[4-(2-pyridinyl)-1-piperazinyl]ethyl]cyclohexanol]",0.64 mg/kg,48%,–,–,–,–
–,–,932 nM,"COc1ccc(C2(O)CCC(CCN3CCN(c4ccccn4)CC3)CC2)cc1 (stereo not drawn) [Example 15, trans-1-(4-Methoxyphenyl)-4-[2-[4-(2-pyridinyl)-1-piperazinyl]ethyl]cyclohexanol]",–,–,–,–,0.3 mg/kg,52%
–,–,537 nM,"OC1(c2ccccc2)CCC(CCN2CCN(c3ccccn3)CC2)CC1 (stereo not shown) [Example 5, 1-Phenyl-4-[2-[4-(2-pyridinyl)-1-piperazinyl]ethyl]cyclohexanol]",1.8 mg/kg,35%,–,–,–,–
–,5 nM,341 nM,"OC1(c2cccs2)CCC(CCN2CCN(c3ccccn3)CC2)CC1 (stereo not drawn) [Example 4, trans-4-[2-[4-(2-Pyridinyl)-1-piperazinyl]ethyl]-1-(2-thienyl)cyclohexanol]",–,–,–,–,1.1 mg/kg,47%
–,6 nM,262 nM,"OC1(c2cccs2)CCC(CCN2CCN(c3ccccn3)CC2)CC1 (stereo not drawn) [Example 3, cis-4-[2-[4-(2-Pyridinyl)-1-piperazinyl]ethyl]-1-(2-thienyl)cyclohexanol]",1.3 mg/kg,67%,–,–,–,–
–,4.5 nM,312 nM,"OC1(c2ccsc2)CCC(CCN2CCN(c3ccccn3)CC2)CC1 (stereo not shown) [Example 14, 4-[2-[4-(2-Pyridinyl)-1-piperazinyl]ethyl]-1-(3-thienyl)cyclohexanol]",0.48 mg/kg,37%,–,–,–,–
